Assay results as given in patent US4578382A, “4-acylamino-1-azaadamantanes, and compositions for use thereof in medicine” (Etablissements Nativelle S.A., priority 1981, dated 1986).
Read-outs that look alike come from different tables or passages of the source.

Legend:
anesthetized dog [1] = test: Hemodynamic (cardiovascular) tolerance in the anesthetized dog; format: in vivo; details: i.v.; for Cardiac Flow, percentage of variation / Cardiac Frequency, percentage of variation / Systolic Arterial Pressure, percentage of variation / Total Peripheral Resistances, percentage of variation / dp/dt/p Left Ventricular, percentage of variation: vs control period
Experimental: The hemodynamic tolerance of the derivatives of the invention was studied on dogs anesthesized with sodium pentobarbital. Endocavitary pressures were measured by means of catheters connected to Statham sensors while external recording of the electrocardiogram (E.C.G.) provided the measurement of cardiac frequency. Cardiac flow was measured by means of an electromagnetic sensor placed on the beginning of the aorta. The total peripheral resistances R were calculated from the value of the average aortic pressure (P) and the cardiac flow (Q) in accordance with the formula R=P/Q.
After measurement of the parameters during a control period, the derivatives were injected intravenously in cumulative doses (30 minute interval between doses). The variations of the parameters in relation to the control period were measured within 20 and 30 minutes after each injection and are expressed as a percentage of variation in relation to the control.
Table 2 summarizes the variations in hemodynamic parameters observed between the first and last injections.

anesthetized dog [2] = test: Electrophysiological studies on the anesthetized dog; format: in vivo; details: i.v., doses 0.1 to 1.4 mg/kg; 1 evaluation
Experimental: This study was carried out on dogs anesthetized with pentobarbital, with a closed thorax, by means of bipolar catheter-electrodes introduced into the cardiac cavities by transcutaneous venous and arterial means. The surface electrocardiogram (standard derivation D2) is recorded permanently.
By means of a programmable JANSEN (R) stimulator, the following parameters may be measured:
spontaneous cardiac frequency (FC);
sinus recuperation time (SRTc) after auricular stimulation imposed at 160 b/mn for 1 mn;
intracardiac conduction times (auriculohisien at a constant frequency, His-Purkinje, intraventricular);
the effective and functional refractory periods measured at an imposed constant frequency, with the extrastimulus method.
During the electrophysiological study, the derivatives were injected intravenously for 2 minutes for each dose and at 30 minute intervals between each dose. The doses are expressed as a cumulative value and as a base term.
The measurement of the various parameters was carried out before the injection of the first dose (control period) and from 10 to 28 minutes after the injection of each dose of the substance. The results are expressed as a percentage of variation in relation to the control period.

[3] = Acute toxicity in the mouse (LD 50, Litchfield and Wilcoxon); details: in vivo
Experimental: The acute toxicity of the derivatives of the invention were studied by intraperitoneal administration (I.P.) on the mouse (10 animals, 5 males and 5 females per dose) and calculation of the lethal dose 50 (LD 50) in accordance with the method of Litchfield and Wilcoxon (J. Pharmacol. 96, 99-113 (1949)).
In certain cases (derivatives of Examples 4, 6, 9), the LD 50 was also calculated after oral administration (P.O.) of the derivatives.

[4] = tested on: ventricular arrhythmias with adrenalin; test: Test with adrenalin after experimental infarct; format: in vivo, dog
Excerpt: (§1) Narcisse et al, Ann. Pharma. Fr., 37, 325-330 (1979), in the rat by the aconitine intoxication test of S. Witchitz et al, Coeur Med. Int., X(2), 281-286, (1971) and in the dog by the Harris test described in Circulation, 1, 1318, (1950) and by the test with adrenalin after experimental infarct of I. J. Steffe et al, J. Pharmacol. Exp. Ther., 214, 50-57 (1980).
2 to 5 days after an experimental infarct, the effects of discontinuous injections (in intravenous bolus of […] of basic adrenalin) of adrenalin were observed on the electrocardioagram of the conscious dog.
During a first phase (control) of the experiment, three successive injections of adrenalin were given and, in the 2 minutes following each injection, the frequency of the ventricular extrasystoles was measured. In this manner, by increasing the dose of adrenalin as necessary, it was possible to determine the dose which caused the appearance of ventricular extrasystoles at a higher frequency than or equal to half the total number of ventricular systoles.
After injection of the derivative to be tested, the same dose of adrenalin was reinjected after 5 minutes, then 30 minutes, 60 minutes, 90 minutes, etc., and its effects were compared to those observed during the control period.
The results therein are expressed as a percentage of extrasystoles (on the total number of systoles) measured during the 2 minutes following the injection of adrenalin before and after the administration of the derivative to be tested.

[5] = tested on: ventricular arrhythmias and death induced by the aconitine; test: Aconitine intoxication test in the anesthetized rat; format: in vivo; details: i.v., vs untreated control
Excerpt: as §1
The anesthetized rat was intoxicated with an intravenous perfusion of aconitine while its electrocardiogram (ECG) was permanently recorded. During the perfusion at constant rate, the time necessary for the appearance of ventricular arrhythmias, successive extrasystoles (ESV), then stable ventricular tachycardium (TV) and the time within which the animal died were measured.
The animals were divided into a control group (untreated) and treated groups (different doses). The results are expressed as a percentage of prolonging the time of appearance of the arrhythmias and of death of the treated groups in reaction to the control group.
The results obtained are shown in Table 4 below and express the percentage of prolongation of the time of appearance of ventricular arrhythmias (ventricular extrasystoles and ventricular tachycardiums), and of the death, induced by the aconitine after an intravenous injection (I.V.) of several derivatives of the invention, in relation to a group of untreated control animals.

[6] = tested on: anoxic ventricular fibrillation; test: Lawson test (cardiac antifibrillatory power, chloroform); format: in vivo; details: ip; mouse, intraperitoneal, 10 minutes before chloroform
Experimental: The Lawson test is a test for the study of the cardiac antifibrillatory power of the derivatives. The mice (20 per group) received an intraperitoneal injection of the derivative 10 minutes before being placed in a chloroform-saturated atmosphere. Upon respiratory arrest, the thorax was opened (5 to 10 seconds) and whether or not the heart was in ventricular fibrillation was checked. The efficacy dose 50 (ED 50) of the derivative being studied is the dose which protects half the mice against anoxic ventricular fibrillation.

[7] = as above; details: in vivo, ip; mouse, intraperitoneal; read-out: Maximum Dose Tolerated
[8] = cumulative doses 0.1 to 1 mg/kg
[9] = ip, intraperitoneal, read-out: LD 50 I.P.
[10] = 1.3 mg/kg, control period 85% of ESV
[11] = 10 mg/kg, control period 40% of ESV
[12] = cumulative doses 0.3 to 10 mg/kg
[13] = 4 mg/kg, control period 71% of ESV

CC1(NC(=O)CC(c2ccccc2)c2ccccc2)C2CC3CC1CN(C2)C3(C)C (single isomer, unassigned) [Example 6, N-(3,3-diphenylpropionyl)-4-amino-4,8,8-trimethyl-1-azaadamantane]
Cardiac frequency, maximum variation (anesthetized dog [1]; anesthetized dog): +10%
Cardiac Flow, percentage of variation (anesthetized dog [1]; [8]): -3 to -18%
Cardiac Frequency, percentage of variation (anesthetized dog [1]; [8]): -3 to +10%
Systolic Arterial Pressure, percentage of variation (anesthetized dog [1]; [8]): -8 to -16%
Total Peripheral Resistances, percentage of variation (anesthetized dog [1]; [8]): 0%
dp/dt/p Left Ventricular, percentage of variation (anesthetized dog [1]; [8]): -6 to -13%
F.C. (cardiac frequency), variation (anesthetized dog [2]): 0 to +32%
HV (time of His-Purkinje conduction), variation (anesthetized dog [2]): 0 to +92%
PREA (effective auricular refractory period), variation (anesthetized dog [2]): +18 to +50%
PREV (effective ventricular refractory period), variation (anesthetized dog [2]): +10 to +20%
QRS (time of intraventricular conduction), variation (anesthetized dog [2]): 0 to +50%
St-H (time of auriculohisien conduction), variation (anesthetized dog [2]): 0 to +25%
LD50 [3, 9]: 51 mg/kg
LD50 ([3]; oral, read-out: LD 50 P.O.): 380 mg/kg
ESV Percentage at 5 min [4, 10]: 29%
ESV Percentage at 30 min [4, 10]: 17%
ESV Percentage at 60 min [4, 10]: 17%
Prolongation of time of appearance of ventricular extrasystoles (ESV) ([5]; 1 mg/kg): +52%
Prolongation of time of appearance of ventricular tachycardium (TV) ([5]; 1 mg/kg): +93%
Prolongation of time to death ([5]; 1 mg/kg): +69%
Prolongation of time of appearance of ventricular extrasystoles (ESV) ([5]; 2 mg/kg): +67%
Prolongation of time of appearance of ventricular tachycardium (TV) ([5]; 2 mg/kg): +139%
Prolongation of time to death ([5]; 2 mg/kg): +97%

COc1ccc(CCC(=O)NC2(C)C3CC4CC2CN(C3)C4(C)C)cc1 (centres unmarked) [Example 5, N-[3-(p-methoxy-phenyl)propionyl]-4-amino-4,8,8-trimethyl-1-azaadamantane]
ED50 [6]: 61 mg/kg
MTD [7]: 200 mg/kg
Cardiac frequency, in words (anesthetized dog [1]; anesthetized dog): the frequency does not change
Cardiac Flow, percentage of variation (anesthetized dog [1]; cumulative doses 1 to 10 mg/kg): +4 to -8%
Cardiac Frequency, percentage of variation (anesthetized dog [1]; cumulative doses 1 to 10 mg/kg): 0%
Systolic Arterial Pressure, percentage of variation (anesthetized dog [1]; cumulative doses 1 to 10 mg/kg): 0 to +3%
Total Peripheral Resistances, percentage of variation (anesthetized dog [1]; cumulative doses 1 to 10 mg/kg): -6 to +11%
dp/dt/p Left Ventricular, percentage of variation (anesthetized dog [1]; cumulative doses 1 to 10 mg/kg): +2 to -15%
LD50 [3, 9]: 250 mg/kg
ESV Percentage at 5 min [4, 11]: 9%
ESV Percentage at 30 min [4, 11]: 14%
ESV Percentage at 60 min [4, 11]: 16%
Prolongation of time of appearance of ventricular extrasystoles (ESV) ([5]; 5 mg/kg): +41%
Prolongation of time of appearance of ventricular tachycardium (TV) ([5]; 5 mg/kg): +20%
Prolongation of time to death ([5]; 5 mg/kg): +21%
Prolongation of time of appearance of ventricular extrasystoles (ESV) ([5]; 10 mg/kg): +51%
Prolongation of time of appearance of ventricular tachycardium (TV) ([5]; 10 mg/kg): +48%
Prolongation of time to death ([5]; 10 mg/kg): +36%
Prolongation of time of appearance of ventricular extrasystoles (ESV) ([5]; 20 mg/kg): +65%
Prolongation of time of appearance of ventricular tachycardium (TV) ([5]; 20 mg/kg): +54%
Prolongation of time to death ([5]; 20 mg/kg): +50%

CC1(NC(=O)c2ccccc2)C2CC3CC1CN(C2)C3(C)C (centres unmarked) [Example 7, 4-N-benzoylamino-4,8,8-trimethyl-1-azaadamantane]
ED50 [6]: 76 mg/kg
MTD [7]: 150 mg/kg
LD50 [3, 9]: 230 mg/kg
Prolongation of time of appearance of ventricular extrasystoles (ESV) ([5]; 5 mg/kg): +59%
Prolongation of time of appearance of ventricular tachycardium (TV) ([5]; 5 mg/kg): +53%
Prolongation of time to death ([5]; 5 mg/kg): +29%
Prolongation of time of appearance of ventricular extrasystoles (ESV) ([5]; 10 mg/kg): +35%
Prolongation of time of appearance of ventricular tachycardium (TV) ([5]; 10 mg/kg): +35%
Prolongation of time to death ([5]; 10 mg/kg): +45%
Prolongation of time of appearance of ventricular extrasystoles (ESV) ([5]; 20 mg/kg): +111%
Prolongation of time of appearance of ventricular tachycardium (TV) ([5]; 20 mg/kg): +105%
Prolongation of time to death ([5]; 20 mg/kg): +89%

COc1ccc(C(=O)NC2(C)C3CC4CC2CN(C3)C4(C)C)cc1 (centres unmarked) [Example 8, N-(p-methoxybenzoyl)-4-amino 4,8,8-trimethyl-1-azaadamantane]
ED50 [6]: 49 mg/kg
MTD [7]: 100 mg/kg
Cardiac frequency, maximum variation (anesthetized dog [1]; anesthetized dog): -15%
Cardiac Flow, percentage of variation (anesthetized dog [1]; [12]): -7 to -22%
Cardiac Frequency, percentage of variation (anesthetized dog [1]; [12]): -7 to -15%
Systolic Arterial Pressure, percentage of variation (anesthetized dog [1]; [12]): -6 to -21%
Total Peripheral Resistances, percentage of variation (anesthetized dog [1]; [12]): 0%
dp/dt/p Left Ventricular, percentage of variation (anesthetized dog [1]; [12]): 0 to -28%
LD50 [3, 9]: 250 mg/kg
ESV Percentage at 5 min [4, 13]: 35%
ESV Percentage at 30 min [4, 13]: 36%
ESV Percentage at 60 min [4, 13]: 53%
Prolongation of time of appearance of ventricular extrasystoles (ESV) ([5]; 5 mg/kg): +45%
Prolongation of time of appearance of ventricular tachycardium (TV) ([5]; 5 mg/kg): +43%
Prolongation of time to death ([5]; 5 mg/kg): +46%
Prolongation of time of appearance of ventricular extrasystoles (ESV) ([5]; 10 mg/kg): +71%
Prolongation of time of appearance of ventricular tachycardium (TV) ([5]; 10 mg/kg): +84%
Prolongation of time to death ([5]; 10 mg/kg): +215%
Prolongation of time of appearance of ventricular extrasystoles (ESV) ([5]; 20 mg/kg): +98%
Prolongation of time of appearance of ventricular tachycardium (TV) ([5]; 20 mg/kg): +107%
Prolongation of time to death ([5]; 20 mg/kg): +112%
